We go through three compounds from US6737547B1, “Compositions containing and methods of using N-acyl-1H-aminoindenes” (Teva Pharmaceutical Industries, Ltd., priority 1998, dated 2004).

Entries after “also recorded” stand apart in the source; their conditions may differ.

In general, ED50 refers to the dose that gives a 50% effect, or the effect in half of the subjects. By EC50 is commonly meant the concentration giving half of the maximal effect.

One data set concerns mice. Nature of the data set: Protection against hypobaric hypoxia in mice (survival time). It counts as in vivo. The settings on record: for activity in the hypobaric hypoxia model (in words): dose of 25 mg/kg, listed in decreasing order of activity. The protocol: The apparatus used consisted of two chambers A and B connected by a three-way valve. […] The air in chamber A was evacuated to a pressure of 100 mm Hg. The three way valve was turned to disconnect chamber B from room air and to connect it to chamber A. At this point, the pressure in B fell to 200 mm Hg. Survival of residing mice was determined up to a maximum exposure of 15 minutes, and is defined as the time between onset of hypoxia to cessation of respiration.

The next data set has as its system Male ICR mice. Nature of the data set: Protection against maximal electroshock-induced seizure in mice (MES). Type of data set: in vivo. The settings on record: for protected/total: electroshock 30 min after medication; for ED50: Mus musculus, median effective dose, maximal electroshock, mice, ip, read-out: ED50 (95% confidence limits). As to the method:
Male ICR mice were used. The rodent shocker apparatus consisted of a shock stimulator Type 221 (Hugo Sachs Elektronik, Germany) with a current setting for mice. Thirty minutes after medication with a given agent, given intraperitoneally as a fine slurry in methyl cellulose 0.5% in distilled water, each mouse received an electroshock of 50 mA for 0.2 seconds, applied to the eye, at a maximum of 250 V/300 mA. The ratio of mice protected against seizure in a group of four per dose was determined and used as an indicator of neuroprotective activity.
Protection of mice against seizures induced by electroshock is a widely used model to probe for potential anti-epileptic agents (see, for example, Y. I. Sohn et al., Anticonvulsant properties of diphenylthiohydantoin, Arch. Int. Pharmacodyn. 188, 284-289, 1970).

Data set [1] deals with guinea-pig ileal preparation. Nature of the data set: Decrease of contractile response to intramural electric stimulation in the guinea-pig ileal preparation. The settings on record: Cavia porcellus; calculated from logit plot; contractile response to intramural electric stimulation; read-out: EC50. As to the method:
A 2 cm-long section of the distal ileum freshly dissected from a CO2-asphyxiated guinea pig is cleaned from adhering tissue and mounted in an organ bath (5 mL) containing Krebs solution constantly aerated with oxygen containing 5% CO2. The initial tension is adjusted at 5 g per strip. Tension is monitored isometrically with a Grass FTC3 force transducer. Intramural electric stimulation is delivered through a platinum electrode from a Grass stimulator model s88, s44 at supramaximal voltage (V) and a frequency of 0.1/s. The preparation develops a rhythmic contractile response at maximal amplitude which is stable over time. Addition of test drugs to the organ bath causes a dose-dependent decrease in contraction amplitude which is stable over 5-8 minutes. The relative decrease in contractile response indicates the relative potency of a given agent in a series.
Blocking or decreasing neural excitability evoked by programmed electric stimulation is another indicator of a compound's potential neuroprotective activity. A convenient test system uses the guinea-pig ileal preparation mounted in an organ bath (see, for example, Eiichi Hayashi et al., European J. Pharmacol 48, 297-307, 1978).

Data set [2] concerns guinea-pig ileal preparation. Nature of the data set: Decrease in contractile response of guinea-pig ileum evoked by the nicotinic agonist DMPP. The settings on record: for EC50: Cavia porcellus, calculated from logit plot, inhibiting contractile response to 1 uM DMPP, read-out: EC50; for reversibility of the depression by rising concentrations of DMPP: test compound at 200 uM fixed bath concentration, FIG. 8. The protocol: A strip of guinea-pig ileum is mounted in an organ bath, as described in EXAMPLE 10. 1-N,N-dimethyl-4-N-phenylpiperazinium chloride (DMPP) is added at intervals of about 15 minutes in order of increasing dose, to cause bath concentrations in the range of 0.1-10 uM. A brief contraction follows each addition. The amplitude of the contractile response is used to derive a dose-response relationship for DMPP. Usually, a bath concentration of 1 uM DMPP will give 90-100% of the maximal response obtainable in the given preparation. One of two procedures follows this: A dose-response of a test compound is determined in the presence of a fixed concentration of DMPP. This is done by incubating the preparation with a given concentration of the test compound, then challenging it with DMPP at a dose to give 1 uM bath concentration. The procedure is repeated with the next higher concentration of the test compound. In the other procedure, the dose-response of DMPP is determined in the presence of a fixed bath concentration of the test compound, usually 200 uM.
When intramural nerve stimulation occurs, as in the case of electrical stimulation, the contractile effector substance is released from nerve endings by a depolarization wave that propagates along the parasympathetic nerve fiber until its junction with smooth muscle of the ileum. An alternative but not equivalent procedure is stimulation of parasympathetic ganglia by an appropriate nicotinic agonist such as 1-N,N-dimethyl-4-N-phenylpiperazinium chloride (DMPP). Stimulation of parasympathetic ganglia causes a depolarization wave in the post-ganglionic nerve fiber which terminates on the smooth muscle of the ileum, causing release of contractile effector and contraction (see, for example, E. S. Vizi, Acetylcholine release from guinea-pig ileum by parasympathetic ganglion stimulants and gastrin-like polypeptides, Br. J. Pharmacol. 47, 765-77. 1973).

The test system of data set [3] is guinea-pig ileal preparation. Nature of the data set: Potentiation of adenosine depression of contractile response, procedure I (in the presence of test compound). The settings on record: drug present. As to the method: (§1) The test system used is the intramural electrically-stimulated guinea-pig ileal preparation as described in EXAMPLE 10. Adenosine added to the organ bath in rising concentrations in the range 0.1-10 uM causes a dose-dependent decrease in contraction amplitude, with an EC50 of about 1 uM.
In procedure I, the effect of a given concentration of adenosine, usually, 0.2 or 0.4 uM was first determined and related to the full contractile response in the absence of adenosine. […] The amplitude of the contractile response was recorded. Now, adenosine was added at the same dose initially used, and the effect of adenosine in the presence of the test compound was recorded.
(§2) The calculated effect is the product of the responses to each of the two agents when applied separately. The potentiation ratio is defined as (100%found)/(100-% calculated).

Data set [4] deals with guinea-pig ileal preparation. Nature of the data set: Potentiation of adenosine depression of contractile response, procedure II (after exposure to and washout of test compound). The settings on record: for Mean potentiation ratio ± SEM / potentiation ratio, Max / potentiation ratio, Min: adenosine 0.4 uM, after exposure and washout, 5, 50-400, 6, 50-400; for Mean potentiation ratio ± SEM: drug conc. (uM): 3, 100-400, 2a, 1000, 2, 1000; for rate of restoration of the original response to adenosine after washout: after exposure to and washout of the potentiating agent; for potentiation ratio, Max / potentiation ratio, Min: drug conc. range (uM): 3, 100-400. The protocol: as §1, §2
In all cases, the difference between the calculated and observed response was statistically significant. […] In procedure II, the dose response to adenosine was determined before and after exposure of the preparation to the test drug and washout of the test drug from the organ bath. In this case, significant potentiation of adenosine was observed even though the test drug had been washed out from the organ bath. In fact, the potentiation ratio, as defined earlier, was even higher than found in the presence of the test compounds (Procedure I), reaching very high values.

The mark [5] stands for this setting: Mus musculus, ip, mice, 200 mm Hg, read-out: survival ± SD (survival time as percent of vehicle control).
Setting [6] is: Mus musculus, 50 mg/kg, ip, mice, 200 mm Hg, read-out: survival ± SD (survival time as percent of vehicle control).
The mark [7] stands for this setting: adenosine 0.2 uM, drug conc. range 40-400 uM.
[8] abbreviates: adenosine 0.4 uM, drug conc. range (uM): 3, 20-400, 5, 50-200, 6, 25-50.

As for `CC(=O)N[C@@H]1CCc2ccccc21` [Compound 2a, (R)-N-acetyl-1-aminoindan, reference compound], in the data set with mice (setting [5]), the response vs control in vivo at 25 mg/kg worked out at 142 ± 94% and the response vs control in vivo at 100 mg/kg is 375 ± 72%. Further, the response vs control in vivo at 36 mg/kg with mice (Mus musculus, 36 mg/kg, ip, mice, 200 mm Hg, read-out: survival ± SD (survival time as percent of vehicle control)) stood at 110 ± 57%. Moreover, the response vs control in vivo at 50 mg/kg in the data set with mice (setting [6]) was found to be 299 ± 69%. Moreover, the protected/total with Male ICR mice (25 mg/kg intraperitoneally) was 0/4. The protected/total with Male ICR mice (50 mg/kg intraperitoneally) was 3/4. Further, in the data set on Male ICR mice (100 mg/kg intraperitoneally), the protected/total is listed as 4/4. Further, the 50% effective dose (ED50) in the data set with Male ICR mice was found to be 42 mg/kg. Also, in data set [1], the EC50 is 748 µM. In data set [2], the EC50 was 279 µM and the “reversibility of the depression by rising concentrations of DMPP” value is given as “almost to full restoration”. Moreover, in data set [3] (setting [7]), the “Mean potentiation ratio ± SEM” value is reported as 1.31 ± 0.05; the “potentiation ratio, Max” value was determined as 1.43; the “potentiation ratio, Min” value came to 1.19. Besides, in data set [4], the “Mean potentiation ratio ± SEM” value turned out to be 1.41 and the “rate of restoration of the original response to adenosine after washout” value was “fastest”.

On to `CC(=O)NC1=CCc2cc(Cl)ccc21` [Compound 6, N-Acetyl-3-amino-6-chloro-1H-indene], for which, in the data set on mice (setting [5]), the response vs control in vivo at 25 mg/kg stood at 393 ± 110% and the response vs control in vivo at 100 mg/kg was 294 ± 267%. In addition, in the data set on mice (setting [6]), the response vs control in vivo at 50 mg/kg stood at 234 ± 120%. The “activity in the hypobaric hypoxia model (in words)” value in the data set on mice was “strong activity”. Further, the protected/total with Male ICR mice (50 mg/kg intraperitoneally) is on record as 2/4. Also, the protected/total in the data set with Male ICR mice (100 mg/kg intraperitoneally) is recorded as 4/4. Besides, in the data set with Male ICR mice, the 50% effective dose (ED50) came to 50 mg/kg. In data set [1], the EC50 is 133 µM. Moreover, the EC50 in data set [2] is 27 µM. In addition, in data set [3] (setting [8]), the “Mean potentiation ratio ± SEM” value turned out to be 1.93 ± 0.39; the “potentiation ratio, Max” value is 2.32; the “potentiation ratio, Min” value was determined as 1.54. For the same compound, in data set [4], the “Mean potentiation ratio ± SEM” value is given as 8.82 ± 1.2; the “potentiation ratio, Max” value is given as 12.28; the “potentiation ratio, Min” value was 6.86; the “rate of restoration of the original response to adenosine after washout” value was “slowest”. Moreover, in data set [4] (guinea pig ileal preparation after wash-out), the “potentiating effect retained after wash-out from the organ bath (in words)” value is on record as “prolonged potentiating effect”.

Take `CC(=O)NC1=CCc2ccccc21` [Compound 3, N-Acetyl-3-amino-1H-indene]: in the data set on mice (50 mg/kg, mice), the “protection over 2a (control)” value is on record as 1000%; the side effects entry is “minor and transient side effects such as slight sedation, hypopnea and defecation”. Besides, in the data set with mice (Mus musculus, 12.5 mg/kg, ip, mice, 200 mm Hg, read-out: survival ± SD (survival time as percent of vehicle control)), the response vs control in vivo at 12.5 mg/kg was 637 ± 341%. In the data set on mice (setting [5]), the response vs control in vivo at 25 mg/kg turned out to be 735 ± 238% and the response vs control in vivo at 100 mg/kg is 703 ± 242%. In the data set with mice (setting [6]), the response vs control in vivo at 50 mg/kg turned out to be 879 ± 237%. Further, the “activity in the hypobaric hypoxia model (in words)” value in the data set on mice is given as “strong activity”. The protected/total in the data set with Male ICR mice (100 mg/kg intraperitoneally) is listed as 1/4. Also, in the data set on Male ICR mice (125 mg/kg intraperitoneally), the protected/total is on record as 2/4. Besides, the protected/total in the data set on Male ICR mice (150 mg/kg intraperitoneally) is recorded as 4/4. For the same compound, the ED50 with Male ICR mice was determined as 116 mg/kg. The EC50 in data set [1] is 251 µM. Moreover, in data set [2], the EC50 was 170 µM and the “reversibility of the depression by rising concentrations of DMPP” value is given as “not reversible; also recorded: irreversibly blocked”. For the same compound, in data set [3] (setting [8]), the “Mean potentiation ratio ± SEM” value is reported as 1.49 ± 0.075; the “potentiation ratio, Max” value is 1.74; the “potentiation ratio, Min” value is given as 1.29. Further, in data set [4], the “Mean potentiation ratio ± SEM” value came to 1.54 ± 0.25; the “potentiation ratio, Max” value was 1.99; the “potentiation ratio, Min” value was 1.14.
